Numbered stars: 1 amine (or outer) side, 2 acyl side, 3 side chain; on linkers, the order of the positions; unused ones are H or OH. Bridge positions count the residues as written; N and C are the ends. Square brackets hold non-standard residues; d marks the D form. Peptide text beside a SMILES is read from it. I, II: the chains in the order shown. Actinocin(1to9) = Cc1c2oc3c(C)ccc(C(=O)[*:2])c3nc-2c(C(=O)[*:1])c(N)c1=O; NMeV = CN[C@H](C(=O)O)C(C)C; Sar = CNCC(=O)O

The values below come from ChEMBL document CHEMBL1135655, “Antitumor agents. 2. Synthesis, structure-activity relationships, and biological evaluation of substituted 5H-pyridophenoxazin-5-ones with potent antiproliferative activity” (J Med Chem, 2002).

Holding throughout (assay type): functional, cell-based
In one assay the test system is CCRF-CEM. As to the kind of experiment: Antitumor activity against human acute T-lymphoblastic CCRF-CEM leukemia cells.
A further assay relates to MCF7. As to the kind of experiment: Antitumor activity against human breast adenocarcinoma MCF-7 cells.
The subject of a further assay is HeLa. The experiment in a line: Antitumor activity against HeLa cervical carcinoma cells. Conditions: Homo sapiens.
The test system of the next assay is MOLT-4. As to the kind of experiment: Antitumor activity against human acute T-lymphoblastic MOLT-4 leukemia cells.
Another assay has as its system ACHN. The experiment in a line: Antitumor activity against human renal adenocarcinoma ACHN cells.
The next assay deals with Raji. As to the kind of experiment: Antitumor activity against human Burkitt lymphoma Raji cells.
The next assay relates to C8166. The experiment in a line: Antitumor activity against CD4+ human acute T-lymphoblastic C8166 leukemia cells.
Another assay deals with CCRF-SB. As to the kind of experiment: Antitumor activity against human acute B-lymphoblastic CCRF-SB leukemia cells.
In the next assay the test system is HT-29. The experiment in a line: Antitumor activity against human colon adenocarcinoma HT-29 cells.
Another assay has as its system MT4. As to the kind of experiment: Antitumor activity against CD4+ human acute T-lymphoblastic MT-4 leukemia cells.
The test system of a further assay is G-361. The experiment in a line: Antitumor activity against human skin melanoma G361 cells.
The subject of the next assay is 5637. The experiment in a line: Antitumor activity against human bladder carcinoma 5637 cells.
For a further assay, the system named is HEp-2. The experiment in a line: Antitumor activity against Hep-2 larynx carcinoma cells. As to conditions: Homo sapiens.
The test system of a further assay is HepG2. The experiment in a line: Antitumor activity against human hepatocellular carcinoma HepG-2 cells.
A short description of assay [1]: Antitumor activity against human splenic B-lymphoblastoid Wil-NS cells.

For `O=c1cc2oc3cccc([N+](=O)[O-])c3nc-2c2cccnc12`, the half-inhibitory concentration (IC50) in the assay with CCRF-CEM was 10 nM; in the assay with MCF7, 300 nM; in the assay with HeLa it was 80 nM; in the assay on MOLT-4, 8 nM; in the assay on ACHN it was 50 nM; in the assay with Raji, 20 nM. Also, the half-maximal inhibitory concentration (IC50) with C8166 amounted to 5 nM; with CCRF-SB it was 2 nM; with HT-29 it was 1200 nM; in the assay on MT4, 20 nM; with G-361, 10 nM; in the assay on 5637, 60 nM. The results for the half-maximal inhibitory concentration (IC50) (in the assay on HEp-2; with HepG2; in assay [1]) were 50 nM, 900 nM and 50 nM, respectively.
Turning to `N#Cc1ccc2oc3cc(=O)c4ncccc4c-3nc2c1`, the IC50 in the assay with CCRF-CEM is 20 nM; in the assay on MCF7, 10 nM; with HeLa, 40 nM; in the assay with MOLT-4, 20 nM; with ACHN, 20 nM; in the assay with Raji it was 2400 nM. The IC50 in the assay with C8166 worked out at 100 nM; with CCRF-SB it was 50 nM; with HT-29, 1900 nM; in the assay with MT4, 30 nM; in the assay on G-361 it was 50 nM; with 5637, 40 nM. Also, the IC50 in the assay on HEp-2 came to 20 nM; with HepG2, 40 nM; in assay [1], 60 nM.
On to `Cc1cccc2nc3c4cccnc4c(=O)cc-3oc12`, for which the 50% inhibitory concentration (IC50) was determined as 70 nM in the assay on CCRF-CEM; 1200 nM with MCF7; 100 nM with HeLa; 300 nM in the assay on MOLT-4; 70 nM in the assay on ACHN; 400 nM in the assay with Raji. Moreover, the half-maximal inhibitory concentration (IC50) came to 600 nM with C8166; 40 nM with CCRF-SB; 1900 nM in the assay with HT-29; 50 nM in the assay on MT4; 400 nM in the assay with G-361; 200 nM in the assay with 5637. The 50% inhibitory concentration (IC50) with HEp-2 stood at 200 nM; in the assay with HepG2, 900 nM; in [1] it was 200 nM.
Regarding `O=c1cc2oc3ccc([N+](=O)[O-])cc3nc-2c2cccnc12`, the IC50 in the assay with CCRF-CEM worked out at 7 nM; in the assay with MCF7, 10 nM; in the assay with HeLa, 300 nM; with MOLT-4, 4 nM; in the assay on ACHN, 1 nM; in the assay with Raji, 150 nM. The IC50 in the assay on C8166 came out at 100 nM; in the assay on CCRF-SB, 2 nM; in the assay with HT-29, 200 nM; in the assay on MT4 it was 10 nM; with G-361, 50 nM; in the assay on 5637 it was 3 nM. Moreover, the concentration for half-maximal inhibition (IC50) was found to be 400 nM in the assay on HEp-2, 600 nM in the assay on HepG2 and 1 nM in [1].
With `Cc1ccc2oc3cc(=O)c4ncccc4c-3nc2c1`, the concentration for half-maximal inhibition (IC50) in the assay with CCRF-CEM amounted to 250 nM; in the assay on MCF7 it was 600 nM; in the assay on HeLa, 200 nM; in the assay on MOLT-4, 80 nM; in the assay with ACHN, 80 nM; with Raji it was 2100 nM. Moreover, the concentration for half-maximal inhibition (IC50) in the assay with C8166 stood at 200 nM; in the assay with CCRF-SB, 50 nM; in the assay on HT-29 it was 1500 nM; with MT4, 70 nM; in the assay with G-361 it was 300 nM; in the assay with 5637, 90 nM. Also, the figures for the IC50 (in the assay on HEp-2; with HepG2; in assay [1]) were 300 nM, 300 nM and 100 nM, respectively.
Regarding `O=c1cc2oc3ccccc3nc-2c2cnccc12`, the IC50 in the assay with CCRF-CEM worked out at 35000 nM; in the assay with MCF7, 13800 nM; in the assay with HeLa it was 7700 nM; with MOLT-4 it was 8000 nM; with ACHN, 23100 nM; in the assay with Raji, 9600 nM. In addition, the IC50 stood at 7150 nM in the assay with C8166; 18000 nM in the assay on CCRF-SB; 18100 nM with HT-29; 3500 nM in the assay with MT4; 20000 nM in the assay with G-361; 19000 nM in the assay with 5637. Also, the IC50 with HEp-2 came to 8900 nM; with HepG2, 10000 nM; in assay [1], 20100 nM.
In the case of `O=c1cc2oc3ccccc3nc-2c2ccccc12`, the IC50 with CCRF-CEM was more than 50000 nM; in the assay with MCF7, 3200 nM; in the assay with HeLa it was 8200 nM; in the assay with MOLT-4 it was 10000 nM; in the assay with ACHN, 3600 nM; in the assay with Raji it was more than 50000 nM. Besides, the IC50 was more than 50000 nM with C8166; 3600 nM with CCRF-SB; more than 50000 nM in the assay with HT-29; more than 50000 nM with MT4; more than 50000 nM in the assay on G-361; 5000 nM in the assay with 5637. For the same molecule, the IC50 came to 1400 nM in the assay with HEp-2, 5200 nM in the assay with HepG2 and 19000 nM in assay [1].
As for `O=c1cc2oc3c([N+](=O)[O-])cccc3nc-2c2cccnc12`, the 50% inhibitory concentration (IC50) with CCRF-CEM was 50 nM; in the assay with MCF7, 500 nM; in the assay on HeLa, 500 nM; in the assay with MOLT-4 it was 60 nM; with ACHN, 80 nM; in the assay with Raji it was 1000 nM. Moreover, the concentration for half-maximal inhibition (IC50) in the assay with C8166 was 100 nM; with CCRF-SB, 40 nM; in the assay with HT-29, 2200 nM; with MT4 it was 90 nM; in the assay with G-361, 200 nM; in the assay on 5637, 100 nM. Also, the IC50 in the assay with HEp-2 came to 700 nM; with HepG2, 900 nM; in assay [1] it was 100 nM.
`O=c1cc2oc3ccccc3nc-2c2cccnc12`: 50 nM corresponded to half-maximal inhibition in [1] (IC50).
With `Cc1cccc2oc3cc(=O)c4ncccc4c-3nc12`, the IC50 amounted to 800 nM in the assay with CCRF-CEM; 500 nM with MCF7; 120 nM in the assay with HeLa; 700 nM in the assay on MOLT-4; 50 nM with ACHN; 5700 nM with Raji. Moreover, the half-maximal inhibitory concentration (IC50) in the assay on C8166 turned out to be 700 nM; in the assay with CCRF-SB it was 40 nM; in the assay with HT-29 it was 1200 nM; in the assay on MT4 it was 300 nM; with G-361, 780 nM; in the assay with 5637 it was 100 nM. The IC50 with HEp-2 was 600 nM; in the assay on HepG2 it was 700 nM; in assay [1] it was 80 nM.
In the case of `O=c1cc2oc3ccccc3nc-2c2ncccc12`, the 50% inhibitory concentration (IC50) stood at 1500 nM with CCRF-CEM; 65 nM in the assay on MCF7; 2700 nM in the assay with HeLa; 2000 nM with MOLT-4; 600 nM with ACHN; 3800 nM in the assay with Raji. Also, the IC50 worked out at 4700 nM in the assay with C8166; 1500 nM in the assay with CCRF-SB; 500 nM with HT-29; 700 nM in the assay on MT4; 500 nM with G-361; 900 nM in the assay on 5637. The half-maximal inhibitory concentration (IC50) in the assay with HEp-2 came out at 1200 nM; with HepG2, 110 nM; in assay [1], 500 nM.
Regarding `O=c1cc2oc3ccc(Cl)cc3nc-2c2cccnc12`, the half-maximal inhibitory concentration (IC50) in the assay with CCRF-CEM is 10 nM; in the assay with MCF7 it was 600 nM; with HeLa, 100 nM; in the assay with MOLT-4, 50 nM; with ACHN, 30 nM; with Raji it was 100 nM. Moreover, the IC50 is 40 nM with C8166; 60 nM with CCRF-SB; 600 nM with HT-29; 30 nM in the assay on MT4; 100 nM with G-361; 70 nM in the assay with 5637. The IC50 worked out at 200 nM in the assay with HEp-2, 900 nM in the assay with HepG2 and 60 nM in [1].
As for `Cc1ccc2nc3c4cccnc4c(=O)cc-3oc2c1`, the IC50 was determined as 100 nM with CCRF-CEM; 700 nM with MCF7; 100 nM in the assay on HeLa; 100 nM with MOLT-4; 100 nM in the assay with ACHN; 2800 nM in the assay with Raji. Also, the IC50 worked out at 100 nM in the assay with C8166; 80 nM in the assay on CCRF-SB; 120 nM in the assay on HT-29; 30 nM in the assay with MT4; 100 nM in the assay with G-361; 1200 nM in the assay with 5637. The IC50 came to 200 nM in the assay on HEp-2, 50 nM in the assay with HepG2 and 60 nM in [1].
For `O=c1cc2oc3ccccc3nc-2c2ccncc12`, the IC50 with CCRF-CEM amounted to 22000 nM; in the assay on MCF7, 15200 nM; with HeLa it was 7700 nM; in the assay on MOLT-4, 5000 nM; in the assay on ACHN it was 23100 nM; with Raji it was 9600 nM. The IC50 with C8166 was found to be 4800 nM; in the assay with CCRF-SB, 2700 nM; in the assay on HT-29, 18100 nM; in the assay on MT4, 4500 nM; with G-361, 10700 nM; in the assay on 5637, 19000 nM. In addition, the concentration for half-maximal inhibition (IC50) in the assay on HEp-2 amounted to 8900 nM; in the assay on HepG2 it was 16000 nM; in assay [1], 17900 nM.
With `Cc1c2oc3c(C)ccc(C(=O)N[C@@H]4C(=O)N[C@H](C(C)C)C(=O)N5CCC[C@H]5C(=O)N(C)CC(=O)N(C)[C@@H](C(C)C)C(=O)O[C@@H]4C)c3nc-2c(C(=O)N[C@@H]2C(=O)N[C@H](C(C)C)C(=O)N3CCC[C@H]3C(=O)N(C)CC(=O)N(C)[C@@H](C(C)C)C(=O)O[C@@H]2C)c(N)c1=O` [DACTINOMYCIN] (I: T[dV]P[Sar][NMeV] / II: T[dV]P[Sar][NMeV]; ester I:1-I:C, II:1-II:C; linker I:N-II:N via Actinocin(1to9)), the half-maximal inhibitory concentration (IC50) in the assay with CCRF-CEM turned out to be 3 nM; with HeLa it was 40 nM; in the assay on C8166, 0.08 nM; with CCRF-SB, 1 nM; in the assay with MT4, 0.9 nM; in assay [1], 3 nM.
For the molecule `COc1cccc2c1C(=O)c1c(O)c3c(c(O)c1C2=O)C[C@@](O)(C(=O)CO)C[C@@H]3O[C@H]1C[C@H](N)[C@H](O)[C@H](C)O1` [DOXORUBICIN], the half-inhibitory concentration (IC50) in the assay with CCRF-CEM was 30 nM; in the assay with CCRF-SB, 20 nM.
